The target of series [1] is T1, Dihydrofolate reductase (Rattus norvegicus, UniProt Q920D2).
T1 sequence (Q920D2 whole entry): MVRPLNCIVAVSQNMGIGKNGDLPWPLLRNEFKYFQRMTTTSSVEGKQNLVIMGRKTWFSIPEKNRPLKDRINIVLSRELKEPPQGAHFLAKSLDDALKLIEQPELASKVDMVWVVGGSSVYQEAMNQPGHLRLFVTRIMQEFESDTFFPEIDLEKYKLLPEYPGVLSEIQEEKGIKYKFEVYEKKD
Description: Inhibition of dihydrofolate reductase (DHFR) from rat liver (rl)

The next series relates to Toxoplasma gondii. In words: Inhibitory concentration of cell growth from Toxoplasma gondii. It counts as functional, organism-based.
A short description of series [2]: Log Ko/w value by LOGKOW program. It counts as ADME. As to conditions: octanol/water; read-out: Log Ko/w.
For series [3], the target named is T2, Bifunctional dihydrofolate reductase-thymidylate synthase (Toxoplasma gondii, UniProt Q07422).
T2 sequence (Q07422 whole entry): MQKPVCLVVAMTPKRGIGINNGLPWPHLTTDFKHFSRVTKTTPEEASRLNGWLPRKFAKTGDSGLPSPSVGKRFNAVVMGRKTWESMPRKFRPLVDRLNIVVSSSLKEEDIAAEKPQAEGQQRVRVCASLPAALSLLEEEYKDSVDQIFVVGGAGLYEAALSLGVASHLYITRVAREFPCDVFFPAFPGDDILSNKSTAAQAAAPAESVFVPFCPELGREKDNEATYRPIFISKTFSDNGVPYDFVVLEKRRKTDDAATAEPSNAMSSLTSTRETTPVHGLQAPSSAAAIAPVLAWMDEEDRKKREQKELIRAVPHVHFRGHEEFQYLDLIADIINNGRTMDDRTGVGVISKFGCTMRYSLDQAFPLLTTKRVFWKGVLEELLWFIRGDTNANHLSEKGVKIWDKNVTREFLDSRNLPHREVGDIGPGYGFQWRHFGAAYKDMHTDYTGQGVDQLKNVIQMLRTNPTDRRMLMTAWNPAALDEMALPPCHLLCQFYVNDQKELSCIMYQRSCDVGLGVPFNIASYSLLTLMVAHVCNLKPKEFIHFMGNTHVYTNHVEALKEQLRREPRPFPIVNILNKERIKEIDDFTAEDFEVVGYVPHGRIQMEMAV
The series can be described thus: Inhibition of dihydrofolate reductase (DHFR) from Toxoplasma gondii(tg).

The nature of series [4]: The compound was tested for ratio of inhibition of cell growth and dihydrofolate reductase(DHFR). It counts as functional.
Series [5] deals with T3, Dihydrofolate reductase (Pneumocystis carinii, UniProt P16184).
T3 sequence (P16184 whole entry): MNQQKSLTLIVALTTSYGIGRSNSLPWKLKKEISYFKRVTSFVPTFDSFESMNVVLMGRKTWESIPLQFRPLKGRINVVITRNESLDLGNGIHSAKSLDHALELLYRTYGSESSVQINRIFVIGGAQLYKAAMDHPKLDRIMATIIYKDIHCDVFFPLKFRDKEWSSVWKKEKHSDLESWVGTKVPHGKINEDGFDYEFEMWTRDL
Description: Inhibition of dihydrofolate reductase (DHFR) from Pneumocystis carinii(pc)

The nature of series [6]: The compound was tested for ratio of inhibition of dihydrofolate reductase(DHFR) from rat(rl) liver and Toxoplasma gondii(tg).
Series [7] can be described thus: The compound was tested for ratio of inhibition of dihydrofolate reductase(DHFR) from rat(rl) liver and Pneumocystis carinii(pc).

Molecules are shown by their SMILES.

A word on the IC50: it is the concentration at which inhibition is half-maximal. High values mean weaker potency, low ones greater potency. In the case of `COc1cccc(NCc2cnc3nc(N)nc(N)c3c2C)c1`, the IC50 came out at 80.1 nM on Dihydrofolate reductase [1], 371 nM in the series on Toxoplasma gondii, 7.4 nM in series [3] and 68.9 nM at Dihydrofolate reductase [5]. The logP in series [2] was 2.14. Also, the Ratio in series [4] was 50.
As to `COc1cc(N(C)Cc2cnc3nc(N)nc(N)c3c2C)cc(OC)c1OC`, the logP in series [2] was determined as 1.76.
Take `COc1ccc(N(C)Cc2cnc3nc(N)nc(N)c3c2C)cc1OC`: the Ratio in series [6] was determined as 1.5; in series [7], 0.1.
In the case of `Cc1c(CN(C)c2ccc(Br)cc2)cnc2nc(N)nc(N)c12`, the IC50 against Dihydrofolate reductase [1] turned out to be 36 nM; in series [3], 30 nM; on Dihydrofolate reductase [5], 37 nM.
Turning to `Cc1c(CNc2ccc(Cl)cc2)cnc2nc(N)nc(N)c12`, the IC50 came out at 51 nM against Dihydrofolate reductase [1], 19 nM in series [3] and 55.4 nM on Dihydrofolate reductase [5].
As for `Cc1c(CN(C)c2ccc(Cl)cc2)cnc2nc(N)nc(N)c12`, the IC50 at Dihydrofolate reductase [1] was 26 nM; in series [3], 5.4 nM; against Dihydrofolate reductase [5] it was 29 nM.
As to `Cc1c(CNc2ccc(Br)cc2)cnc2nc(N)nc(N)c12`, the IC50 against Dihydrofolate reductase [1] stood at 34.9 nM; in series [3] it was 9.5 nM; against Dihydrofolate reductase [5], 80.8 nM.
For `COc1ccc(OC)c(N(C)Cc2cnc3nc(N)nc(N)c3c2C)c1`, the logP in series [2] was 2.42. In addition, the Ratio in series [4] is 35.
`Cc1c(CN(C)c2ccccc2Cl)cnc2nc(N)nc(N)c12`: the IC50 on Dihydrofolate reductase [1] came out at 100 nM; in series [3], 18 nM; at Dihydrofolate reductase [5] it was 84 nM.
In the case of `COc1cccc(N(C)Cc2cnc3nc(N)nc(N)c3c2C)c1`, the IC50 came out at 18 nM on Dihydrofolate reductase [1], 6.3 nM in series [3] and 30 nM on Dihydrofolate reductase [5].
On to `Cc1c(CNc2ccccc2)cnc2nc(N)nc(N)c12`, for which the IC50 against Dihydrofolate reductase [1] came to 170 nM; in the series with Toxoplasma gondii, 317 nM; in series [3], 17 nM; against Dihydrofolate reductase [5], 80 nM. In series [2], the logP stood at 1.79. Further, in series [4], the Ratio is listed as 19.
`COc1ccccc1NCc1cnc2nc(N)nc(N)c2c1C`: the IC50 is 169 nM on Dihydrofolate reductase [1], 23 nM in series [3] and 117 nM against Dihydrofolate reductase [5].
`COc1ccc(N(C)Cc2cnc3nc(N)nc(N)c3c2C)cc1`: the values for the IC50 (at Dihydrofolate reductase [1]; in series [3]; on Dihydrofolate reductase [5]) were 13 nM, 7.3 nM and 35 nM, respectively.
The compound `COc1ccc(NCc2cnc3nc(N)nc(N)c3c2C)cc1OC` registered a half-maximal inhibitory concentration (IC50) on Dihydrofolate reductase [1] of 44 nM.
Regarding `COc1ccc(NCc2cnc3nc(N)nc(N)c3c2C)cc1`, the IC50 against Dihydrofolate reductase [1] stood at 55.6 nM; in series [3], 12 nM; on Dihydrofolate reductase [5] it was 95.4 nM.
The like results for `Cc1c(CNc2cccc(Cl)c2)cnc2nc(N)nc(N)c12` were, in that order, 37 nM, 11 nM and 23 nM.
In the case of `Cc1c(CNc2ccccc2Cl)cnc2nc(N)nc(N)c12`, the half-inhibitory concentration (IC50) amounted to 88 nM at Dihydrofolate reductase [1], 58 nM with Toxoplasma gondii, 7.1 nM in series [3] and 47 nM against Dihydrofolate reductase [5]. Moreover, the logP in series [2] is 2.35. Further, in series [4], the Ratio came to 8.

These data come from ChEMBL document CHEMBL1132261, “Pneumocystis carinii and Toxoplasma gondii dihydrofolate reductase inhibitors and antitumor agents: synthesis and biological activities of 2,4-diamino-5-methyl-6-[(monosubstituted anilino)methyl] pyrido[2,3-d]pyrimidines” (J Med Chem, 1999).
